≈ marks a conversion by molar mass, not a printed value. Read-outs that look alike come from different tables or passages of the source. Where a SMILES comes first, the peptide text is derived from it. Bridges are numbered along the chain shown (N, C = ends). The star is where a group is joined. Palmitoyl = CCCCCCCCCCCCCCCC(=O)*
Columns and labels:
[1] = tested on: Staphylococcus aureus ATCC 25923; conditions: values marked *: performed by the group in the previous study; ref [29]; cited from earlier work
Source text: Table 2 Antimicrobial activity of lipopeptides. | column: MIC (μg/mL) / S. aureus

[2] = tested on: Staphylococcus aureus ATCC 25923; conditions: values marked *: performed by the group in the previous study; ref [29]; cited from earlier work; remark: listed apart in the source
Source text: Table 3 Antibiofilm activity of lipopeptides. | column: MBEC (μg/mL) / S. aureus

[3] = tested on: Staphylococcus aureus ATCC 25923; type: cell-based
Outline: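 Adherent cells remaining after a 24 h incubation and PBS washes are treated with test compounds (0.5–256 μg/mL) for another 24 h at 37 °C. Viability is then scored with resazurin, and the minimal biofilm eradication concentration is the lowest level at which dye reduction stays at or below 10 ± 0.5% of the control range.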

[4] = tested on: Staphylococcus aureus ATCC 25923; type: cell-based; remark: listed apart in the source
Outline: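 CLSI microdilution. Inocula: bacteria 5 × 10^5 CFU/mL (MHB), yeasts 2 × 10^3 CFU/mL (RPMI-1640, 2% D-glucose). Lipopeptides 0.5–256 μg/mL; 37 °C, 18 h/24 h resp.; visual MIC, n=3.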

[5] = tested on: E. coli ML-35 (ATCC 43827); type: cell-based, Escherichia coli
[6] = tested on: Candida albicans ATCC 10231; experiment: Transmission electron microscopy (TEM); type: cell-based; conditions: 2 × MIC, 5.0 × 10^6 CFU/mL, 1 h at room temperature
Procedure: TEM was used to examine ultrastructural changes in the Candida albicans ATCC 10231 cells treated with selected lipopeptides (L2, C2, L4, C4) and melittin (positive control). Fungal cells (Candida albicans ATCC 10231) were incubated in RMPI-1640 overnight. The cells were centrifuged (3500 rpm, 7 min) and resuspended in fresh RMPI-1640 medium to obtain dense cell suspension (5.0 × 10^6 CFU/mL). The high cell-density culture was prepared to facilitate TEM observations. Peptides’ concentrations were 2 × MIC. Samples were incubated for 1 h at room temperature. Importantly, MIC of selected peptides (L2, C2, L4, C4, and melittin) were also determined with dense inoculum of yeasts (5.0 × 10^6 CFU/mL). After the treatment, the fungal cells were centrifuged (3500× rpm, 10 min) and washed twice with PBS. Fungal cells were fixed with 2.5% glutaraldehyde buffered at pH 6.5 with 0.1 M sodium cacodylate (Polysciences, Warrington, PA, USA) for 6 h at room temperature. Postfixation was performed with a 1% osmium tetroxide (Polysciences, Warrington, PA, USA) solution for 2 h at 4 °C. The cells were then centrifuged and resuspended in 0.1 M cacodylate buffer (pH 6.5). After re-centrifugation, cells were dehydrated with ethanol. Yeasts were embedded in Epon 812 resin (Sigma-Aldrich) at room temperature. An ultramicrotome Leica UC7 was used to prepare ultrathin sections (55 nm). […]

keratinocytes = conditions: reported in the literature; ref [13]; cited from earlier work
Source text: However, an identical hemolysis pattern is consistent only with peptides L4, C4, L7, and C7. A common feature of these compounds is the presence of arginine residue in the second and third position, which differentiates them from the rest of compounds used in this study. Overall effect of disulfide cyclization on hemolysis seems to be dependent on arginine(s) position. In general, disulfide cyclization of lipopeptides results in the reduced cytotoxicity a ...

| SMILES | MIC S. aureus [1] | MBEC S. aureus [2] | MBEC S. aureus ([3]; ATCC 25923, 24 h) [µg/mL] | MIC S. aureus ([4]; ATCC 25923, 18 h) [µg/mL] | also measured |
| --- | --- | --- | --- | --- | --- |
| CCCCCCCCCCCCCCCC(=O)N[C@H]1CSSC[C@@H](C(N)=O)NC(=O)[C@H](CCCCN)NC(=O)[C@H](CCCCN)NC(=O)[C@H](CCCCN)NC1=O [C1, C16-CKKKC-NH2] (Palmitoyl-CKKKC-NH2; disulfide 1-5) | 8 * μg/mL | 64 * μg/mL | – | – | – |
| CCCCCCCCCCCCCCCC(=O)N[C@H]1CSSC[C@@H](C(N)=O)NC(=O)[C@H](CCCCN)NC(=O)[C@H](CCCCN)NC(=O)[C@H](CCCCN)NC(=O)[C@H](CCCCN)NC1=O [C2, C16-CKKKKC-NH2] (Palmitoyl-CKKKKC-NH2; disulfide 1-6) | – | – | – | – | MBEC S. aureus ([3]; 24 h biofilm on polystyrene plates, 24 h exposure at 37 °C, resazurin, triplicate): 64 µg/mL; MIC S. aureus ([4]; broth microdilution (CLSI), MHB, 5 × 10^5 CFU/mL, 37 °C, 18 h, visual, triplicate): 32 µg/mL (≈ 32.9 µM); MIC against E. coli ML-35 [5]: 8 µg/mL (≈ 8.23 µM) |
| CCCCCCCCCCCCCCCC(=O)N[C@H]1CSSC[C@@H](C(N)=O)NC(=O)[C@H](CCCCN)NC(=O)[C@H](CCCCN)NC(=O)[C@H](CCCCN)NC(=O)[C@H](CCCNC(=N)N)NC1=O [C3, C16-CRKKKC-NH2] (Palmitoyl-CRKKKC-NH2; disulfide 1-6) | 8 * μg/mL | 128 * μg/mL | – | – | – |
| CCCCCCCCCCCCCCCC(=O)N[C@H]1CSSC[C@@H](C(N)=O)NC(=O)[C@H](CCCCN)NC(=O)[C@H](CCCCN)NC(=O)[C@H](CCCNC(=N)N)NC(=O)[C@H](CCCCN)NC1=O [C4, C16-CKRKKC-NH2] (Palmitoyl-CKRKKC-NH2; disulfide 1-6) | – | – | 64 | 16 (≈ 16 µM) | MIC against E. coli ML-35 [5]: 8 µg/mL (≈ 8 µM); ultrastructural changes in TEM micrographs [6]: numerous vesicles are visible inside and outside the cell |
| CCCCCCCCCCCCCCCC(=O)N[C@H]1CSSC[C@@H](C(N)=O)NC(=O)[C@H](CCCCN)NC(=O)[C@H](CCCNC(=N)N)NC(=O)[C@H](CCCCN)NC(=O)[C@H](CCCCN)NC1=O [C5, C16-CKKRKC-NH2] (Palmitoyl-CKKRKC-NH2; disulfide 1-6) | 8 * μg/mL | 128 * μg/mL | – | – | – |
| CCCCCCCCCCCCCCCC(=O)N[C@H]1CSSC[C@@H](C(N)=O)NC(=O)[C@H](CCCNC(=N)N)NC(=O)[C@H](CCCCN)NC(=O)[C@H](CCCCN)NC(=O)[C@H](CCCCN)NC1=O [C6, C16-CKKKRC-NH2] (Palmitoyl-CKKKRC-NH2; disulfide 1-6) | 16 * μg/mL | 64 * μg/mL | – | – | – |
| CCCCCCCCCCCCCCCC(=O)N[C@H]1CSSC[C@@H](C(N)=O)NC(=O)[C@H](CCCCN)NC(=O)[C@H](CCCCN)NC(=O)[C@H](CCCNC(=N)N)NC(=O)[C@H](CCCNC(=N)N)NC1=O [C7, C16-CRRKKC-NH2] (Palmitoyl-CRRKKC-NH2; disulfide 1-6) | – | – | 128 | 8 (≈ 7.78 µM) | – |
| CCCCCCCCCCCCCCCC(=O)N[C@@H](CCCCN)C(=O)N[C@@H](CCCCN)C(=O)N[C@@H](CCCCN)C(N)=O [L1, C16-KKK-NH2] | 32 * μg/mL | 64 * μg/mL | – | – | toxicity against keratinocytes (keratinocytes): 3.2 µg/mL |
| CCCCCCCCCCCCCCCC(=O)N[C@@H](CCCCN)C(=O)N[C@@H](CCCCN)C(=O)N[C@@H](CCCCN)C(=O)N[C@@H](CCCCN)C(N)=O [L2, C16-KKKK-NH2] (Palmitoyl-KKKK-NH2) | – | – | 64 | 16 (≈ 20.8 µM) | MIC against E. coli ML-35 [5]: 4 µg/mL (≈ 5.21 µM) |
| CCCCCCCCCCCCCCCC(=O)N[C@@H](CCCNC(=N)N)C(=O)N[C@@H](CCCCN)C(=O)N[C@@H](CCCCN)C(=O)N[C@@H](CCCCN)C(N)=O [L3, C16-RKKK-NH2] (Palmitoyl-RKKK-NH2) | 16 * μg/mL | 64 * μg/mL | – | – | – |
| CCCCCCCCCCCCCCCC(=O)N[C@@H](CCCCN)C(=O)N[C@@H](CCCNC(=N)N)C(=O)N[C@@H](CCCCN)C(=O)N[C@@H](CCCCN)C(N)=O [L4, C16-KRKK-NH2] (Palmitoyl-KRKK-NH2) | – | – | 64 | 8 (≈ 10 µM) | MIC against E. coli ML-35 [5]: 4 µg/mL (≈ 5.02 µM) |
| CCCCCCCCCCCCCCCC(=O)N[C@@H](CCCCN)C(=O)N[C@@H](CCCCN)C(=O)N[C@@H](CCCNC(=N)N)C(=O)N[C@@H](CCCCN)C(N)=O [L5, C16-KKRK-NH2] (Palmitoyl-KKRK-NH2) | 16 * μg/mL | 32 * μg/mL | – | – | – |
| CCCCCCCCCCCCCCCC(=O)N[C@@H](CCCCN)C(=O)N[C@@H](CCCCN)C(=O)N[C@@H](CCCCN)C(=O)N[C@@H](CCCNC(=N)N)C(N)=O [L6, C16-KKKR-NH2] (Palmitoyl-KKKR-NH2) | 16 * μg/mL | 32 * μg/mL | – | – | – |
| CCCCCCCCCCCCCCCC(=O)N[C@@H](CCCNC(=N)N)C(=O)N[C@@H](CCCNC(=N)N)C(=O)N[C@@H](CCCCN)C(=O)N[C@@H](CCCCN)C(N)=O [L7, C16-RRKK-NH2] (Palmitoyl-RRKK-NH2) | – | – | 128 | 4 (≈ 4.85 µM) | – |

Source: article PMC7582905, “Effect of Disulfide Cyclization of Ultrashort Cationic Lipopeptides on Antimicrobial Activity and Cytotoxicity” (International Journal of Molecular Sciences, 2020)
